According to ChEMBL document CHEMBL1201862, “PubChem BioAssay data set” (2004):
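Following 48 hours of exposure in 96-well plates, responses at five concentrations were used to interpolate endpoints linearly. Here, GI50 denotes the concentration required for 50% inhibition of growth.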 Calls of active or inactive are those of the source. Rule as the data show it: active = GI50 up to about 1.1 µM and inactive = higher.

Assays:
Experiment in all cases: NCI-60 cell line screen, 48 h
786-0 = system: 786-0
A498 = system: A498
A549 = system: A549
ACHN = system: ACHN
BT-549 = system: BT-549
CAKI-1 = system: CAKI-1
CCRF-CEM = system: CCRF-CEM
COLO 205 = system: COLO 205
DU-145 = system: DU-145
EKVX = system: EKVX
HCC 2998 = system: HCC 2998
HCT-116 = system: HCT-116
HCT-15 = system: HCT-15
HL-60 = system: HL-60
HOP-62 = system: HOP-62
HOP-92 = system: HOP-92
HT-29 = system: HT-29
Hs-578T = system: Hs-578T
IGROV-1 = system: IGROV-1
K562 = system: K562
KM12 = system: KM12
LOX IMVI = system: LOX IMVI
M14 = system: M14
MCF7 = system: MCF7
MDA-MB-231 = system: MDA-MB-231
MDA-MB-435 = system: MDA-MB-435
MDA-N = system: MDA-N
MOLT-4 = system: MOLT-4
NCI-H226 = system: NCI-H226
NCI-H23 = system: NCI-H23
NCI-H460 = system: NCI-H460
NCI-H522 = system: NCI-H522
NCI/ADR-RES = system: NCI/ADR-RES
OVCAR-3 = system: OVCAR-3
OVCAR-4 = system: OVCAR-4
OVCAR-5 = system: OVCAR-5
OVCAR-8 = system: OVCAR-8
PC-3 = system: PC-3
RPMI-8226 = system: RPMI-8226
RXF 393 = system: RXF 393
SF-268 = system: SF-268
SF-295 = system: SF-295
SF-539 = system: SF-539
SK-MEL-28 = system: SK-MEL-28
SK-MEL-2 = system: SK-MEL-2
SK-MEL-5 = system: SK-MEL-5
SK-OV-3 = system: SK-OV-3
SN12C = system: SN12C
SNB-19 = system: SNB-19
SNB-75 = system: SNB-75
SR = system: SR
SW-620 = system: SW-620
T47D = system: T47D
TK-10 = system: TK-10
U-251 = system: U-251
UACC-257 = system: UACC-257
UACC-62 = system: UACC-62
UO-31 = system: UO-31

With `O=C(O)CCc1nc2c(n1-c1ccccc1)C(=O)c1ccccc1C2=O` the GI50 (786-0) was > 100 µM (inactive), the GI50 (A498) was > 100 µM (inactive) and the GI50 (A549) was > 100 µM (inactive). The GI50 (ACHN) was > 100 µM (inactive), the GI50 (BT-549) was > 100 µM (inactive) and the GI50 (CAKI-1) was > 100 µM (inactive). For the same molecule, the GI50 (CCRF-CEM) was > 100 µM (inactive), the GI50 (COLO 205) was > 100 µM (inactive) and the GI50 (DU-145) was > 100 µM (inactive). The GI50 (EKVX) was > 100 µM (inactive), the GI50 (HCC 2998) was > 100 µM (inactive) and the GI50 (HCT-116) was 50.2 µM (inactive). The GI50 (HCT-15) was > 100 µM, the GI50 (HL-60) was > 100 µM (inactive) and the GI50 (HOP-62) was > 100 µM (inactive). The GI50 (HOP-92) was 0.0226 µM (active), the GI50 (HT-29) was > 100 µM (inactive) and the GI50 (Hs-578T) was > 100 µM (inactive). For the same molecule, the GI50 (IGROV-1) was > 100 µM (inactive), the GI50 (K562) was > 100 µM (inactive) and the GI50 (KM12) was > 100 µM (inactive). For the same molecule, the GI50 (LOX IMVI) was 70.5 µM (inactive), the GI50 (M14) was > 100 µM (inactive) and the GI50 (MCF7) was 97.7 µM (inactive). For the same molecule, the GI50 (MDA-MB-231) was > 100 µM (inactive), the GI50 (MDA-MB-435) was 87.5 µM (inactive) and the GI50 (MDA-N) was > 100 µM (inactive). The GI50 (MOLT-4) was > 100 µM (inactive), the GI50 (NCI-H226) was > 100 µM (inactive) and the GI50 (NCI-H23) was > 100 µM (inactive). For the same molecule, the GI50 (NCI-H460) was > 100 µM (inactive), the GI50 (NCI-H522) was 38.5 µM (inactive) and the GI50 (NCI/ADR-RES) was > 100 µM (inactive). For the same molecule, the GI50 (OVCAR-3) was > 100 µM (inactive), the GI50 (OVCAR-4) was > 100 µM (inactive) and the GI50 (OVCAR-5) was > 100 µM (inactive). The GI50 (OVCAR-8) was > 100 µM (inactive), the GI50 (PC-3) was > 100 µM (inactive) and the GI50 (RPMI-8226) was > 100 µM (inactive). For the same molecule, the GI50 (RXF 393) was > 100 µM (inactive), the GI50 (SF-268) was > 100 µM (inactive) and the GI50 (SF-295) was > 100 µM (inactive). For the same molecule, the GI50 (SF-539) was > 100 µM (inactive), the GI50 (SK-MEL-28) was > 100 µM (inactive) and the GI50 (SK-MEL-2) was 95.9 µM (inactive). For the same molecule, the GI50 (SK-MEL-5) was > 100 µM (inactive), the GI50 (SK-OV-3) was > 100 µM (inactive) and the GI50 (SN12C) was > 100 µM (inactive). The GI50 (SNB-19) was > 100 µM (inactive), the GI50 (SNB-75) was > 100 µM (inactive) and the GI50 (SR) was > 100 µM (inactive). For the same molecule, the GI50 (SW-620) was > 100 µM (inactive), the GI50 (T47D) was 64.7 µM (inactive) and the GI50 (TK-10) was > 100 µM (inactive). For the same molecule, the GI50 (U-251) was > 100 µM (inactive), the GI50 (UACC-257) was > 100 µM (inactive) and the GI50 (UACC-62) was > 100 µM (inactive). The GI50 (UO-31) was > 100 µM (inactive).
